Data published in patent US6620850B2, “Materials and methods for treatment of neurological disorders involving overactivation of glutamatergic ionotropic receptors” (University of Florida, priority 2001, dated 2003).

Experiments:
cocaine dependence = details: orally administered, patients; cited from earlier work
[1] = system: GluR-mediated miniature excitatory postsynaptic currents (mEPSCs) in hippocampal neurons; assay: mEPSCs in cultured rat hippocampal neurons, whole-cell patch clamp (normoxia); type: cell-based; details: for effect on GluR-mediated mEPSCs: cultured hippocampal neurons, normoxia, in presence of MK-801
[2] = versus 55-60 μM in healthy patients; cited from earlier work
Parkinson's disease = details: oral administration, patients; cited from earlier work

N[C@@H](Cc1ccc(O)cc1)C(=O)O [tyrosine]
clinical benefit in cocaine dependence (cocaine dependence): did not confer a benefit

N[C@@H](Cc1ccc(O)cc1)C(=O)O [L-Tyr, L-tyrosine]
effect on GluR-mediated mEPSCs [1]: significantly and reversibly attenuate

N[C@@H](Cc1ccccc1)C(=O)O [L-Phe, L-phenylalanine]
effect on frequency of mEPSCs (concentration-dependence) ([1]; L-Phe 0.1-3 mM, normalized to control, 5 to 8 cells, P<0.01 compared to control): concentration-dependence of attenuation of the frequency of mEPSCs | effect on GluR-mediated mEPSCs [1]: significantly and reversibly attenuate | blood concentration of L-Phe causing phenylketonuria (PKU) [2]: > 1200 µM

N[C@@H](Cc1c[nH]c2ccccc12)C(=O)O [L-Trp, L-Tryptophan]
effect on GluR-mediated mEPSCs [1]: significantly and reversibly attenuate

N[C@H](Cc1ccccc1)C(=O)O [D-phenylalanine]
clinical benefit in Parkinson's disease (Parkinson's disease): conferred some benefit
